Here are results for seven substances from patent US7871628B2, “Peptide mimics of conserved gonococcal epitopes and methods and compositions using them” (University of Massachusetts, priority 1999, dated 2011).

For test [1], the system named is mAb 2C7. As to the kind of experiment: Direct ELISA: mAb 2C7 binding to multiple antigen peptides. The settings on record: plates coated with MAP 1 μg/well. The procedure:
(§1) Solid phase ELISA was performed to assess the binding of mAb 2C7 to multiple antigen peptides. For direct ELISA, Immulon 1 plates were coated overnight with multiple antigen peptides (1 μg/well) and reacted with varying concentration of mAb 2C7. For inhibition ELISA, plates were coated with purified LOS prepared from N. gonorrhoeae strain 15253 (80 μg/ml) at 37° C. for 3 h. Peptides (linear or MAPs) were diluted in blocking buffer (1% ovalbumin, 0.05% TWEEN-20™ (polysorbate 20), 0.5 M NaCl in PBS) to produce mixtures of varying concentrations. 50 μl-aliquots from each concentration were incubated with 50 μl of mAb 2C7 (stock concentration 0.4 μg/ml diluted in blocking buffer) at 37° C. for 1 h, then 100 μl of mixtures were loaded into microtiter plate wells. […] Purified LOS prepared from gonococcal strain 15253 was used as a positive control in inhibition ELISA.

Test [2] concerns the target mAb 2C7. As to the kind of experiment: Inhibition ELISA: linear peptide or MAPs inhibiting mAb 2C7 binding to LOS. Conditions: for IC50: mAb 2C7 stock 0.4 μg/ml, LOS of strain 15253 coated plates, read-out: half maximal inhibition (IC50) of mAb 2C7 binding to LOS. The procedure: as §1
The test system of test [3] is IgG anti-LOS antibody. As to the kind of experiment: IgG anti-LOS antibody response in immunized mice. It counts as in vivo. The method, then:
FIGS. 8A-8D show octa-MAP1-induced IgG anti-LOS antibody responses in mice. (A) Eight mice received a dose of 50 μg of Octa-MAP1 emulsified in Freund's adjuvant on day 0 and again on day 21. (B) Four mice were immunized with purified LOS as a positive control. Mice were immunized with either Freund's adjuvant (C) or an unrelated octa-MAP control peptide (D) as negative controls.
In FIG. 8(A), eight mice received a dose of 50 μg of Octa-MAP1 emulsified in Freund's adjuvant on day 0 and again on day 21. […] In these mice, IgG anti-LOS titers increased minimally after the first immunization and rose after boosting.
IgG anti-LOS antibody responses for the responder mice only (from the experiments depicted in FIGS. 8A-8D) are shown in FIG. 10. Antibody response is defined as IgG anti-LOS (mean±SE) greater than 0.4 μg/ml (4 fold above baseline IgG anti-LOS levels).

Test [4] has as its system IgM anti-LOS antibody. Put plainly: IgM anti-LOS antibody response in immunized mice. The test is classed as in vivo. The settings on record: responder mice only.
Test [5] concerns N. gonorrhoeae strain 15253. As to the kind of experiment: Complement-mediated bactericidal assay, strain 15253. The test is classed as cell-based, Neisseria gonorrhoeae. The procedure:
(§2) A bactericidal assay was performed using (A) mAb 2C7 mice against strain 15253 (positive control) and strain 15253 lgtG (negative control) (4). 25 μg/ml of mAb 2C7 (100 μl in 150 μl of total volume of reaction mixture) mediated 100% killing of strain 15253, and no killing of strain 15253 lgtG. […] FIG. 12 controls included the Complement source without antibody (137.9%±1.0% survival (no killing) for strain 15253, and 132.5%±14.3% survival (no killing) for the lgtG mutant of 15253).
(§3) Depicted in FIG. 12 is a graph showing survival of N. gonorrhoeae strain 15253 and its lgtG mutant (2C7 epitope negative) (4) exposed to mouse immune serum (67% final mouse immune serum concentration by volume) plus added human complement obtained from normal human donors (17% final human complement concentration by volume).
A standard bactericidal assay was performed to assess complement-mediated bactericidal activity in mouse sera (11). In this assay, mouse serum (67% final volume) (from various mice immunized or not as described below) was incubated with approximately 2.5×10^3 bacteria suspended in Morse A media (33) in the presence of human complement (17% final volume). The reaction mixture was then shaken continuously at 37° C. for 30 minutes. Aliquots of the reaction mixture were then inoculated onto chocolate agar plates at time 0 and 30 minutes. Survival was expressed as the percent increase in colonies on the plate at 30 minutes, compared to those on the plate at 0 minutes. Greater than 100% survival in the assay indicates growth during the 30-minute incubation period.

Test [6] concerns N. gonorrhoeae strain 15253 lgtG. Put plainly: Complement-mediated bactericidal assay, strain 15253 lgtG mutant (2C7 epitope negative). It counts as cell-based, Neisseria gonorrhoeae. The settings on record: serum of single immunized mouse, 67% serum, 17% human complement. The method, then: as §2, §3
Strain 15253 lgtG contains a disrupted allele of lipooligosaccharide (LOS) glycosyl transferase G, which transfers glucose (via an α linkage) onto heptose-2 in the core of LOS (4). The disruption of the lgtG locus results in the loss of 2C7 epitope expression.
A standard bactericidal assay was performed to assess complement-mediated bactericidal activity in mouse sera (11). […] Survival was expressed as the percent increase in colonies on the plate at 30 minutes, compared to those on the plate at 0 minutes. […]

Test [7] has as its system mAb 2C7. As to the kind of experiment: Inhibition ELISA: synthetic peptide inhibiting mAb 2C7 binding to LOS. The procedure: Peptides were diluted in blocking buffer (1% ovalbumin, 0.05% TWEEN-20™ (polysorbate 20), 0.5 M NaCl in PBS) to produce mixtures of varying concentrations (0.1, 0.5 and 1 mg/ml). […] Purified LOS prepared from gonococcal strain 15253 was used as a positive control. A non-reactive 15-mer peptide sequence generated by the above described random peptide library system was used as a negative control peptide [SEQ ID NO:9].

Values joined by “and” are separate entries in the source; they are usually repeats but may differ in a detail not shown here. Equal entries are not always repeated. Positions of bridges follow the written chain, without caps; N, C: chain ends. No end group written: not given here.

As for CGPIPVLDENGLFAPGPC [Octa-MAP1], the “binding to mAb 2C7 in direct ELISA (in words)” value (from here on “binding to mAb 2C7”) in test [1] was “strong binding”. Besides, the half-inhibitory concentration (IC50) in test [2] worked out at 0.23 µM. Besides, in test [3] (individual mice, pooled bleeds weeks 7-11), the “IgG anti-LOS antibody concentration in serum of immunized mouse” value is 5.05 µg/mL and 1.38 µg/mL and 2.50 µg/mL. In addition, the “mice with induced IgG anti-LOS antibody response” value in test [3] (mice immunized day 0 and day 21, Octa-MAP1 50 μg in Freund's adjuvant) was “three of the eight”. Further, the “IgG anti-LOS antibody levels compared with negative control antigens” value in test [3] (responder mice, 7 and 10 weeks after primary immunization) is “higher (p<0.001)”. In addition, in test [3] (three responder mice, boost at week 3), the “time of peak IgG anti-LOS response” value amounted to 7 week. Besides, the “IgM anti-LOS antibody response (in words)” value in test [4] is recorded as “failed to respond with IgM anti-LOS levels higher than mice immunized with negative control antigens”. The “killing of strain 15253” value in test [5] (serum of immunized mouse containing 1.38 μg/ml anti-LOS antibodies) was 31%; in test [5] (serum of immunized mouse containing 2.50 μg/ml anti-LOS antibodies), 74%; in test [5] (serum of immunized mouse containing 5.05 μg/ml IgG anti-LOS, 67% serum, 17% human complement, 30 min), 92%. For the same substance, the “survival of strain 15253” value in test [5] (serum of single immunized mouse (pooled bleeds weeks 7-11), 67% serum, 17% human complement, 30 min) was found to be 8%. Further, the “killing/survival of strain 15253 lgtG (in words)” value in test [6] is recorded as “survived fully”.
In the case of CGPIPVLDENGLFAPGPC [Tetra-MAP1], the “binding to mAb 2C7” value in test [1] is listed as “strong binding”. In addition, in test [2], the IC50 is 1.26 µM.
For the substance “CKSNPIHIIKNRRNIPC (disulfide 1-17 (inferred)) [negative control peptide, reference compound]”, in test [7] (peptide 0.1, 0.5 and 1 mg/ml), the “inhibition of binding of 2C7 mAb to purified LOS coated plate (in words)” value is recorded as “did not inhibit binding”.
As for IPVLDENGLFAP [PEP1], the “percentage inhibition of mAb 2C7 binding to LOS” value in test [7] (peptide 0.1 mg/ml) is 17%; in test [7] (peptide 0.5 mg/ml) it was 77%; in test [7] (peptide 1.0 mg/ml) it was 91%.
On to “control MAP: control multiple antigen peptide(s), each antigen SEQ ID NO: 12 (CGPEARDEGTITLERGPC; cysteine pairing not given here; also: multiple antigen peptide on lysine core) [reference compound]”, for which the “binding to mAb 2C7” value in test [1] is reported as “no binding”. In test [2], the “inhibition of mAb 2C7 binding to LOS (in words)” value is “no significant inhibition”.
With “linear PEP1: linear PEP1 peptide compared with the MAPs in inhibition ELISA (IPVLDENGLFAP)”, the IC50 in test [2] is 55 µM.
As to “unrelated octa-MAP control peptide: unrelated octa-MAP negative control, each antigen SEQ ID NO: 12 (CGPEARDEGTITLERGPC; cysteine pairing not given here; also: octa-MAP on lysine core) [reference compound]”, the “IgG anti-LOS response (in words)” value in test [3] (immunized mice) is listed as “weak or no IgG anti-LOS responses”. Also, the “killing of strain 15253 (in words)” value in test [5] (serum of single immunized mouse, 67% serum, 17% human complement) is “did not kill either strain”. Besides, the “killing/survival of strain 15253 lgtG (in words)” value in test [6] is listed as “did not kill either strain”.
